Molecules are shown by their SMILES.

The experiment has as its target Angiotensin-converting enzyme (Cavia porcellus). Nature of the experiment: Inhibition of guinea pig angiotensin I converting enzyme.
A word on the IC50: it is the concentration that inhibits the measured activity by half. A low value points to inhibition by little substance. For the compound `CC(CS)C(=O)N1CCc2ccccc2C1` (centres undefined), 48000 nM corresponded to half-maximal inhibition (IC50).
For the compound `CCOC(=O)C(CCc1ccccc1)N(C)C(C)C(=O)N1Cc2ccccc2CC1C(=O)O` (centres undefined), the IC50 is greater than 10000 nM.
With `CC(=O)SCC(C)C(=O)N1CCc2ccccc2C1` (centres undefined) the figure was 49000 nM; with `CC(NC(CCc1ccccc1)C(=O)O)C(=O)N1Cc2ccccc2C1C(=O)O` (centres undefined), 3.1 nM; with `CCOC(=O)C(CCc1ccccc1)NC(C)C(=O)N1Cc2ccccc2CC1C(=O)OCC` (centres undefined), 440 nM.
For `CCOC(=O)[C@H](CCc1ccccc1)N[C@@H](C)C(=O)N1Cc2ccccc2[C@H]1C(=O)O` the value was 44 nM.
With `CCOC(=O)C(CCc1ccccc1)NC(C)C(=O)N1Cc2cc(OC)c(OC)cc2CC1C(=O)OCC` (centres undefined) the figure was 520 nM; with `CCOC(=O)[C@H](CCc1ccccc1)N[C@@H](C)C(=O)N1Cc2ccccc2[C@@H]1C(=O)O`, greater than 1000 nM.
Compound `O=C(O)C1c2ccccc2CN1C(=O)CCS` (centres undefined) displayed an IC50 of 58000 nM.
With `CC(NC(CCc1ccccc1)C(=O)O)C(=O)N1CCc2ccccc2C1C(=O)O` (centres undefined) the figure was 5.8 nM.
With `CCOC(=O)C(CCc1ccccc1)NC(C)C(=O)N1Cc2cc(OC)c(OC)cc2CC1C(=O)OCc1ccccc1` (centres undefined) the figure was 300 nM.
On to `CC(=O)SCC(C)C(=O)N1Cc2ccccc2CC1C(=O)O` (racemic), for which the IC50 was 130 nM.
For the compound `CC(=O)SCC(C)C(=O)N1Cc2ccccc2C1C(=O)O` (mixture of isomers), the concentration for half-maximal inhibition (IC50) is 24000 nM.
For `CC(=O)SCCC(=O)N1Cc2ccccc2C1C(=O)O` (centres undefined) the value was 22000 nM.

(Values after BindingDB's records for doi:10.1021/jm00160a026 (1986).)
